# Data as given in ChEMBL document CHEMBL1134929, “Synthesis and biological activity of potent heterocyclic thiol-based inhibitors of endothelin-converting enzyme-1” (Bioorg Med Chem Lett, 2002).
# Experiments:
# Rattus norvegicus [1] = test: Compound was evaluated for its ability to inhibit the Endothelin 1 induced pressor response in anesthetized rats intravenous administration of 10 mg/kg; type: functional
# [2] = target: T1, Endothelin-converting enzyme 1 (Homo sapiens, UniProt P42892); test: In vitro inhibition of Endothelin-converting enzyme 1.
# T1 sequence (P42892 whole entry): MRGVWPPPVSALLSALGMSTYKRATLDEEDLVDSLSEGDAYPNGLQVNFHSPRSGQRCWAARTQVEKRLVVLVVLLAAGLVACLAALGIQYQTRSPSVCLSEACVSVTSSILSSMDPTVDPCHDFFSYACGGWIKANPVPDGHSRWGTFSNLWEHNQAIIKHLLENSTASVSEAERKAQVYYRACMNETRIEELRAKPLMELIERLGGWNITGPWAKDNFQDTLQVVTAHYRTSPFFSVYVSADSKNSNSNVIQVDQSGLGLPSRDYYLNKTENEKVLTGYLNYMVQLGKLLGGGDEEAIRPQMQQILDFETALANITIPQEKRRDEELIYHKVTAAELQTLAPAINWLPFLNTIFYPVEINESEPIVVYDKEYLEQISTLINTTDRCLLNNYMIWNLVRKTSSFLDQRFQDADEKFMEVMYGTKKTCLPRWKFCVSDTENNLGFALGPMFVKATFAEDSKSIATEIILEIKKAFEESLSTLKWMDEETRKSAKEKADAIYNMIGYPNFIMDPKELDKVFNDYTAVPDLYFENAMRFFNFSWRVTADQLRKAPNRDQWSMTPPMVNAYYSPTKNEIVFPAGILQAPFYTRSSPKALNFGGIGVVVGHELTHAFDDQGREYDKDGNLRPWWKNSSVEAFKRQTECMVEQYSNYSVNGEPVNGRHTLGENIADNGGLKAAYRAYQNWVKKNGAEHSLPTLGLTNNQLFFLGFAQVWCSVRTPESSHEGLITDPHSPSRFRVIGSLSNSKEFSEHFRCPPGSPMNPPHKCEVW
# Rattus norvegicus [3] = test: Compound was evaluated for its ability to inhibit Endothelin 1 induced increase in mean arterial pressure (MAP) after 15 min of dosing (20 mg/kg) in rats.; type: functional, Artery
# Rattus norvegicus [4] = test: Compound was evaluated for its ability to inhibit the Endothelin 1 induced pressor response in anesthetized rats iupon oral administration of 3 mg/kg at 4 hr post dosing; type: functional
# Rattus norvegicus [5] = test: Compound was evaluated for its ability to inhibit the Endothelin 1 induced pressor response in anesthetized rats upon oral administration of 3 mg/kg at 0.5 hr post dosing; type: functional
# Rattus norvegicus [6] = test: Compound was evaluated for its ability to inhibit the Endothelin 1 induced pressor response in anesthetized rats upon oral administration of 3 mg/kg at 2 hr post dosing; type: functional
# Rattus norvegicus [7] = test: Compound was evaluated for its ability to inhibit the Endothelin 1 induced pressor response in rats upon oral administration of 3-30 mg/kg at 2 hr post dosing; type: functional
# Rattus norvegicus [8] = test: Compound was evaluated for its ability to inhibit the Endothelin 1 induced pressor response in anesthetized rats upon oral administration of 3 mg/kg at 8 hr post dosing; type: functional
compound,measurement,setting,value
CC(C)[C@H](S)C(=O)NC1(C(=O)N[C@@H](Cc2ccc(-c3ccccc3)cc2)C(=O)O)CCCC1,inhibition in vivo at 10 mg/kg,Rattus norvegicus [1],40%
CC(C)C[C@H](S)C(=O)NC1(C(=O)N[C@@H](Cc2ccc(-c3cccs3)nc2)C(=O)O)CCCC1,IC50,[2],9.5 nM
same,Increase in MAP,Rattus norvegicus [3],77%
same,inhibition in vivo at 10 mg/kg,Rattus norvegicus [1],61%
COC(=O)[C@H](Cc1ccc(-c2cccs2)nc1)NC(=O)C1(NC(=O)[C@H](CC(C)C)SC(C)=O)CCCC1,inhibition in vivo at 3 mg/kg,Rattus norvegicus [4],70%
same,inhibition in vivo at 3 mg/kg,Rattus norvegicus [5],90%
same,inhibition in vivo at 3 mg/kg,Rattus norvegicus [6],82%
same,Inhibition,Rattus norvegicus [7],65%
same,inhibition in vivo at 3 mg/kg,Rattus norvegicus [8],34%
CC(C)[C@H](S)C(=O)NC1(C(=O)NC(Cc2ccc(-c3ccoc3)nc2)C(=O)O)CCCC1 (stereo partly specified),IC50,[2],39 nM
CC(C)[C@H](S)C(=O)NC1(C(=O)NC(Cc2ccc(-c3cccc(N)c3)nc2)C(=O)O)CCCC1 (stereo partly specified),IC50,[2],64 nM
